According to patent US9227959B2, “Ethynyl derivatives” (Hoffmann-La Roche Inc., priority 2012, dated 2016):

Assays:
human mGlu5a receptor [1] = target: T1, human mGlu5a receptor (Homo sapiens (Human), UniProt P41594); assay: MPEP binding assay; conditions: [3H]MPEP 2 nM, 1 h at 4° C., EBNA cell membranes
Protocol: For binding experiments, cDNA encoding human mGlu 5a receptor was transiently transfected into EBNA cells using a procedure described by Schlaeger and Christensen [Cytotechnology 15:1-13 (1998)]. Cell membrane homogenates were stored at −80° C. until the day of assay where upon they were thawed and resuspended and polytronised in 15 mM Tris-HCl, 120 mM NaCl, 100 mM KCl, 25 mM CaCl2, 25 mM MgCl2 binding buffer at pH 7.4 to a final assay concentration of 20 μg protein/well.
Saturation isotherms were determined by addition of twelve [^3H]MPEP concentrations (0.04-100 nM) to these membranes (in a total volume of 200 μl) for 1 h at 4° C. Competition experiments were performed with a fixed concentration of [^3H]MPEP (2 nM) and IC50 values of test compounds evaluated using 11 concentrations (0.3-10,000 nM). Incubations were performed for 1 h at 4° C.
At the end of the incubation, membranes were filtered onto unifilter (96-well white microplate with bonded GF/C filter preincubated 1 h in 0.1% PEI in wash buffer, Packard BioScience, Meriden, Conn.) with a Filtermate 96 harvester (Packard BioScience) and washed 3 times with cold 50 mM Tris-HCl, pH 7.4 buffer. Nonspecific binding was measured in the presence of 10 μM MPEP. The radioactivity on the filter was counted (3 min) on a Packard Top-count microplate scintillation counter with quenching correction after addition of 45 μl of microscint 40 (Canberra Packard S. A., Zürich, Switzerland) and shaking for 20 min.

human mGlu5a receptor [2] = target: T1, human mGlu5a receptor; assay: Intracellular Ca2+ mobilization assay (mGlu5 PAM assay); format: cell-based; conditions: for EC50 (nM) mGlu5 PAM assay / mGlu5 PAM EC50 [nM]: HEK-293 cells with human mGlu5a, L-glutamate at EC20; for Activity profile: PAM = positive allosteric modulator, NAM = negative allosteric modulator; for Efficacy [%]: maximal response in % of maximal stimulatory effect of saturating L-glutamate
Protocol: A monoclonal HEK-293 cell line stably transfected with a cDNA encoding for the human mGlu5a receptor was generated; for the work with mGlu5 Positive Allosteric Modulators (PAMs), a cell line with low receptor expression levels and low constitutive receptor activity was selected to allow the differentiation of agonistic versus PAM activity. Cells were cultured according to standard protocols (Freshney, 2000) in Dulbecco's Modified Eagle Medium with high glucose supplemented with 1 mM glutamine, 10% (vol/vol) heat-inactivated bovine calf serum, Penicillin/Streptomycin, 50 μg/ml hygromycin and 15 μg/ml blasticidin (all cell culture reagents and antibiotics from Invitrogen, Basel, Switzerland).
About 24 hrs before an experiment, 5×10^4 cells/well were seeded in poly-D-lysine coated, black/clear-bottomed 96-well plates. The cells were loaded with 2.5 μM Fluo-4AM in loading buffer (1×HBSS, 20 mM HEPES) for 1 hr at 37° C. and washed five times with loading buffer. The cells were transferred into a Functional Drug Screening System 7000 (Hamamatsu, Paris, France), and 11 half logarithmic serial dilutions of test compound at 37° C. were added and the cells were incubated for 10-30 min. with on-line recording of fluorescence. Following this pre-incubation step, the agonist L-glutamate was added to the cells at a concentration corresponding to EC20 (typically around 80 μM) with on-line recording of fluorescence; in order to account for day-to-day variations in the responsiveness of cells, the EC20 of glutamate was determined immediately ahead of each experiment by recording of a full dose-response curve of glutamate.
Responses were measured as peak increase in fluorescence minus basal (i.e. fluorescence without addition of L-glutamate), normalized to the maximal stimulatory effect obtained with saturating concentrations of L-glutamate. Graphs were plotted with the % maximal stimulatory using XLfit, a curve fitting program that iteratively plots the data using Levenburg Marquardt algorithm. The single site competition analysis equation used was y=A+((B−A)/(1+((x/C)D))), where y is the % maximal stimulatory effect, A is the minimum y, B is the maximum y, C is the EC50, x is the log 10 of the concentration of the competing compound and D is the slope of the curve (the Hill Coefficient). From these curves the EC50 (concentration at which half maximal stimulation was achieved), the Hill coefficient as well as the maximal response in % of the maximal stimulatory effect obtained with saturating concentrations of L-glutamate were calculated.
A depression of the signal observed after addition of the EC20 concentration of L-glutamate was indicative of an inhibitory activity of the test compound.

T1 sequence (P41594 other isoform, or with tags, fused parts or gaps): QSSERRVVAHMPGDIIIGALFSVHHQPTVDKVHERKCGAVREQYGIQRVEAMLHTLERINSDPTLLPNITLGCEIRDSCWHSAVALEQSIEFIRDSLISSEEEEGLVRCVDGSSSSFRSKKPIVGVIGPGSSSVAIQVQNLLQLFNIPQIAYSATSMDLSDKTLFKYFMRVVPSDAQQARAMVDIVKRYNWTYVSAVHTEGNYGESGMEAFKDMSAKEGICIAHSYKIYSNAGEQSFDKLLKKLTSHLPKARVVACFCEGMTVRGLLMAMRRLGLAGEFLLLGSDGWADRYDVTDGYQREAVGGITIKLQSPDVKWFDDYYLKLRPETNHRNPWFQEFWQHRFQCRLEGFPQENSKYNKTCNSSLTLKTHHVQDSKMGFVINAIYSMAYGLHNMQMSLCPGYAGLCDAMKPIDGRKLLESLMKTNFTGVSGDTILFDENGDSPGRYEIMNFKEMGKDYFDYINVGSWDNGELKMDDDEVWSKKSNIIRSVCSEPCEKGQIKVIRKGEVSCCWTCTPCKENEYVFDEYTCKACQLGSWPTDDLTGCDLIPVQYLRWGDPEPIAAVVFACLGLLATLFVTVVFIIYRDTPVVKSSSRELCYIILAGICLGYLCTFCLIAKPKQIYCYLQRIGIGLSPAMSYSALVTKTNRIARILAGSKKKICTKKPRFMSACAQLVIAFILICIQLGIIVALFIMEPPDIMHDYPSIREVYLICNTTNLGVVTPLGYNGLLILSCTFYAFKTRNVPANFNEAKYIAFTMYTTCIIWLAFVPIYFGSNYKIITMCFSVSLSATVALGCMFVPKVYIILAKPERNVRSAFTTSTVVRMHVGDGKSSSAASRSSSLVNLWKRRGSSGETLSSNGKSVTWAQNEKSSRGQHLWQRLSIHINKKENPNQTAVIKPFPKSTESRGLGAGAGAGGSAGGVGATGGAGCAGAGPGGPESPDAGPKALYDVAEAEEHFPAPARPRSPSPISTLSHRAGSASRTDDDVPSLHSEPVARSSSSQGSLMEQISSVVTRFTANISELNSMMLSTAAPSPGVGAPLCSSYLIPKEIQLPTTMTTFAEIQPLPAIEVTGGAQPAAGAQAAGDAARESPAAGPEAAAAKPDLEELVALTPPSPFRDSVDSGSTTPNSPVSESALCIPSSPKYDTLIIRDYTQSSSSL

SMILES | Ki (human mGlu5a receptor [1]) [nM] | EC50 (nM) mGlu5 PAM assay (human mGlu5a receptor [2]) | Activity profile (human mGlu5a receptor [2]) | mGlu5 PAM EC50 [nM] (human mGlu5a receptor [2]) | further results
CC1(C)COCCN1C(=O)c1ccc(C#Cc2cccc(F)c2)cn1 [Example 1, (3,3-Dimethyl-morpholin-4-yl)-[5-(3-fluoro-phenylethynyl)-pyridin-2-yl]-methanone] | 72 | inactive | NAM | – | –
O=C(c1ccc(C#Cc2cccc(Cl)c2)cn1)N1CCOCC1 [Example 2, [5-(3-Chloro-phenylethynyl)-pyridin-2-yl-morpholin-4-yl]-methanone] | – | inactive | – | – | –
CC1(C)COCCN1C(=O)c1ncc(C#Cc2cccc(Cl)c2)cn1 [Example 4, (3,3-Dimethyl-morpholin-4-yl)-[5-(3-chloro-phenylethynyl)-pyrimidin-2-yl]-methanone] | 67 | inactive | NAM | – | –
CC1(C)CN(C(=O)c2ccc(C#Cc3cccc(F)c3)cn2)CCO1 [drawing 3] | – | – | – | – | Efficacy [%] (human mGlu5a receptor [2]): 57%
CC1(C)CCCN(C(=O)c2ncc(C#Cc3ccccc3)cn2)C1 [drawing 4] | – | – | – | – | Efficacy [%] (human mGlu5a receptor [2]): 59%
CC1(C)COCCN1C(=O)c1ccc(C#Cc2cccc(F)c2)cn1 [drawing 5] | – | – | – | inactive | –
CC1(C)COCCN1C(=O)c1ccc(C#Cc2cccc(Cl)c2)cn1 [drawing 7] | – | – | – | inactive | –
CC1(C)COCCN1C(=O)c1ncc(C#Cc2cccc(Cl)c2)cn1 [drawing 8] | – | – | – | inactive | –

More lines, main results first:

Ki (human mGlu5a receptor [1]) [nM] | EC50 (nM) mGlu5 PAM assay (human mGlu5a receptor [2]) | Activity profile (human mGlu5a receptor [2]) | mGlu5 PAM EC50 [nM] (human mGlu5a receptor [2]) | SMILES | further results
23 | inactive | NAM | – | CC1(C)COCCN1C(=O)c1ccc(C#Cc2cccc(Cl)c2)cn1 [Example 3, (3,3-Dimethyl-morpholin-4-yl)-[5-(3-chloro-phenylethynyl)-pyridin-2-yl]-methanone] | –
201 | – | PAM | – | CC1(C)CN(C(=O)c2ccc(C#Cc3cccc(F)c3)cn2)CCO1 [Ref. 1 Ex. 35, reference compound] | –
315 | – | PAM | – | CC1(C)CCCN(C(=O)c2ncc(C#Cc3ccccc3)cn2)C1 [Ref. 1 Ex. 46, reference compound] | –
– | – | – | inactive | O=C(c1ccc(C#Cc2cccc(Cl)c2)cn1)N1CCOCC1 [drawing 6] | –
